Columns and labels:
Type in all cases: cell-based
[1] = system: Chikungunya virus (CHIKV); assay: microbe, parasite or virus in culture; settings: Chikungunya virus, Vero, 48 h, read-out: Percent viral inhibition CHKV
Marburg virus (MARV) = assay: organism not typed; settings: Vero, 72 h, read-out: Percent viral inhibition MARV
dengue virus (DENV) = assay: microbe, parasite or virus in culture; settings: Dengue virus, Vero, 120 h, read-out: Percent viral inhibition DENY

Row | SMILES | inhibition at 1 µM [1] [%] | inhibition at 1 µM (Marburg virus (MARV)) [%] | inhibition at 1 µM (dengue virus (DENV)) [%]
1 | C[C@@H](O)CN1CCN(c2ncc(Oc3cc(CN4CCC(CC(=O)O)CC4)cc(-c4cc(Cl)cc(Cl)c4)n3)cn2)CC1 [Example 298, (R)-2-(1-((2-(3,5-dichlorophenyl)-6-((2-(4-(2-hydroxypropyl)piperazin-1-yl)pyrimidin-5-yl)oxy)pyridin-4-yl)methyl)piperidin-4-yl)acetic acid] | 20.7 | 55.1 | 57
2 | O=C(O)CC1CCN(Cc2cc(Oc3ccc(N4CCN(CCO)CC4)nc3)nc(-c3cc(Cl)cc(Cl)c3)c2)CC1 [Example 300, 2-(1-((2-(3,5-dichlorophenyl)-6-((6-(4-(2-hydroxyethyl)piperazin-1-yl)pyridin-3-yl)oxy)pyridin-4-yl)methyl)piperidin-4-yl)acetic acid] | 18.2 | 45 | 0
3 | CC(CC1CCN(Cc2cc(Oc3cnc(N4CCN(C[C@@H](C)O)CC4)nc3)nc(-c3cc(Cl)cc(Cl)c3)c2)CC1)C(=O)O (stereo partly drawn) [Example 301, 3-(1-((2-(3,5-dichlorophenyl)-6-((2-(4-((R)-2-hydroxypropyl)piperazin-1-yl)pyrimidin-5-yl)oxy)pyridin-4-yl)methyl)piperidin-4-yl)-2-methylpropanoic acid] | 28.8 | 68.4 | 56.1
4 | CC(=O)NCC1CCN(Cc2cc(Oc3cnc(N4CCN(C[C@@H](C)O)CC4)nc3)nc(-c3cc(Cl)cc(Cl)c3)c2)CC1 [Example 302, (R)-N-((1-((2-(3,5-dichlorophenyl)-6-((2-(4-(2-hydroxypropyl)piperazin-1-yl)pyrimidin-5-yl)oxy)pyridin-4-yl)methyl)piperidin-4-yl)methyl)acetamide] | 39 | 56.9 | 26.6
5 | CC(=O)NCC1CCN(Cc2cc(Oc3cnc(N4CCN(CC(C)(C)O)CC4)nc3)nc(-c3cc(Cl)cc(Cl)c3)c2)CC1 [Example 303, N-((1-((2-(3,5-dichlorophenyl)-6-((2-(4-(2-hydroxy-2-methylpropyl)piperazin-1-yl)pyrimidin-5-yl)oxy)pyridin-4-yl)methyl)piperidin-4-yl)methyl)acetamide] | 33.4 | 49.6 | 34.4
6 | CC(=O)NCC1CCN(Cc2cc(Oc3cnc(N4CCN(CC(O)CF)CC4)nc3)nc(-c3cc(Cl)cc(Cl)c3)c2)CC1 (stereo not drawn) [Example 304, N-((1-((2-(3,5-dichlorophenyl)-6-((2-(4-(3-fluoro-2-hydroxypropyl)piperazin-1-yl)pyrimidin-5-yl)oxy)pyridin-4-yl)methyl)piperidin-4-yl)methyl)acetamide] | 0 | 12.4 | 41.8
7 | O=C(O)CC1CCN(Cc2cc(Oc3cnc(N4CCN(CCO)CC4)nc3)nc(-c3cc(Cl)cc(Cl)c3)c2)CC1 [Example 306, 2-(1-((2-(3,5-dichlorophenyl)-6-((2-(4-(2-hydroxyethyl)piperazin-1-yl)pyrimidin-5-yl)oxy)pyridin-4-yl)methyl)piperidin-4-yl)acetic acid] | 13.6 | 51.1 | 7.27
8 | CNC(=O)OCC1CCN(Cc2cc(Oc3cnc(N4CCN(C[C@@H](C)O)CC4)nc3)nc(-c3cc(Cl)cc(Cl)c3)c2)CC1 [Example 308, (R)-(1-((2-(3,5-dichlorophenyl)-6-((2-(4-(2-hydroxypropyl)piperazin-1-yl)pyrimidin-5-yl)oxy)pyridin-4-yl)methyl)piperidin-4-yl)methylmethylcarbamate] | 0 | 23.7 | 0
9 | CNC(=O)NCC1CCN(Cc2cc(Oc3cnc(N4CCN(C[C@@H](C)O)CC4)nc3)nc(-c3cc(Cl)cc(Cl)c3)c2)CC1 [Example 310, (R)-1-((1-((2-(3,5-dichlorophenyl)-6-((2-(4-(2-hydroxypropyl)piperazin-1-yl)pyrimidin-5-yl)oxy)pyridin-4-yl)methyl)piperidin-4-yl)methyl)-3-methylurea] | 2.85 | 18 | 19.3
10 | COC(=O)NCC1CCN(Cc2cc(Oc3cnc(N4CCN(CCO)CC4)nc3)nc(-c3cc(Cl)cc(Cl)c3)c2)CC1 [Example 311, methyl((1-((2-(3,5-dichlorophenyl)-6-((2-(4-(2-hydroxyethyl)piperazin-1-yl)pyrimidin-5-yl)oxy)pyridin-4-yl)methyl)piperidin-4-yl)methyl)carbamate] | 8.41 | 17.5 | 0
11 | O=C(O)CCC1CCN(Cc2cc(Oc3ccc(N4CCN(CCO)CC4)nc3)nc(-c3cc(Cl)cc(Cl)c3)c2)CC1 [Example 314, 3-(1-((2-(3,5-dichlorophenyl)-6-((6-(4-(2-hydroxyethyl)piperazin-1-yl)pyridin-3-yl)oxy)pyridin-4-yl)methyl)piperidin-4-yl)propanoic acid] | 32 | 52.1 | 7.86
12 | CC(=O)NCC1CCN(Cc2cc(Oc3cnc(N4CCN(CC(O)C(=O)O)CC4)nc3)nc(-c3cc(Cl)cc(Cl)c3)c2)CC1 (stereo not drawn) [Example 316, 3-(4-(5-((4-((4-(acetamidomethyl)piperidin-1-yl)methyl)-6-(3,5-dichlorophenyl)pyridin-2-yl)oxy)pyrimidin-2-yl)piperazin-1-yl)-2-hydroxypropanoic acid] | 30.6 | 54.4 | 55.9
13 | C[C@@H](O)CN1CCN(c2ncc(Oc3cc(CN4CCC(OCC(=O)O)CC4)cc(-c4cc(Cl)cc(Cl)c4)n3)cn2)CC1 [Example 317, (R)-2-((1-((2-(3,5-dichlorophenyl)-6-((2-(4-(2-hydroxypropyl)piperazin-1-yl)pyrimidin-5-yl)oxy)pyridin-4-yl)methyl)piperidin-4-yl)oxy)acetic acid] | 14.8 | 53.6 | 20.2
14 | CN1CCN(c2ncc(Oc3cc(CN4CCC(CB(O)O)CC4)cc(-c4cc(Cl)cc(Cl)c4)n3)cn2)CC1 [Example 318, ((1-((2-(3,5-dichlorophenyl)-6-((2-(4-methylpiperazin-1-yl)pyrimidin-5-yl)oxy)pyridin-4-yl)methyl)piperidin-4-yl)methyl)boronic acid] | 15.3 | 31.6 | 44.6
15 | CN1CCN(c2ncc(Oc3cc(CN4CCC(CP(C)(C)=O)CC4)cc(-c4cc(Cl)cc(Cl)c4)n3)cn2)CC1 [Example 320, ((1-((2-(3,5-dichlorophenyl)-6-((2-(4-methylpiperazin-1-yl)pyrimidin-5-yl)oxy)pyridin-4-yl)methyl)piperidin-4-yl)methyl)dimethylphosphineoxide] | 17.5 | 52.5 | 15.3
16 | CN1CCN(c2ncc(Oc3cc(CN4CC[C@@H]5[C@H](CC4)[C@H]5C(=O)O)cc(-c4cc(Cl)cc(Cl)c4)n3)cn2)CC1 [Example 321, (1R,7S,8r)-4-((2-(3,5-dichlorophenyl)-6-((2-(4-methylpiperazin-1-yl)pyrimidin-5-yl)oxy)pyridin-4-yl)methyl)-4-azabicyclo[5.1.0]octane-8-carboxylic acid] | 23.8 | 43.4 | 27.3
17 | CN1CCN(c2ncc(Oc3cc(CN4CCC(CCB(O)O)CC4)cc(-c4cc(Cl)cc(Cl)c4)n3)cn2)CC1 [Example 323, (2-(1-((2-(3,5-dichlorophenyl)-6-((2-(4-methylpiperazin-1-yl)pyrimidin-5-yl)oxy)pyridin-4-yl)methyl)piperidin-4-yl)ethyl)boronic acid] | 5.87 | 30.7 | 0
18 | COC(=O)NC(=O)NCC1CCN(Cc2cc(Oc3cnc(N4CCN(C)CC4)nc3)nc(-c3cc(Cl)cc(Cl)c3)c2)CC1 [Example 325, N-1-((1-((2-(3,5-dichlorophenyl)-6-((2-(4-methylpiperazin-1-yl)pyrimidin-5-yl)oxy)pyridin-4-yl)methyl)piperidin-4-yl)methyl)-N′-methoxyl-carbonylurea] | 0 | 0 | 5.08
19 | CN1CCN(c2ncc(Oc3cc(CN4CCC(CNC(=O)NS(C)(=O)=O)CC4)cc(-c4cc(Cl)cc(Cl)c4)n3)cn2)CC1 [Example 326, N-(((1-((2-(3,5-dichlorophenyl)-6-((2-(4-methylpiperazin-1-yl)pyrimidin-5-yl)oxy)pyridin-4-yl)methyl)piperidin-4-yl)methyl)carbamoyl)methane-sulfonamide] | 22.7 | 63.9 | 45.5
20 | CC(=O)NC(=O)NCC1CCN(Cc2cc(Oc3cnc(N4CCN(C)CC4)nc3)nc(-c3cc(Cl)cc(Cl)c3)c2)CC1 [Example 327, N-(((1-((2-(3,5-dichlorophenyl)-6-((2-(4-methylpiperazin-1-yl)pyrimidin-5-yl)oxy)pyridin-4-yl)methyl)piperidin-4-yl)methyl)carbamoyl)acetamide] | 0 | 63.8 | 0
21 | CN1CCN(c2ncc(Oc3cc(CN4CCC(NC(=O)NS(C)(=O)=O)CC4)cc(-c4cc(Cl)cc(Cl)c4)n3)cn2)CC1 [Example 328, N-((1-((2-(3,5-dichlorophenyl)-6-((2-(4-methylpiperazin-1-yl)pyrimidin-5-yl)oxy)pyridin-4-yl)methyl)piperidin-4-yl)carbamoyl)methanesulfonamide] | 37.5 | 49.5 | 55.8
22 | CN1CCN(c2ncc(Oc3cc(CN4CCC(NC(N)=O)CC4)cc(-c4cc(Cl)cc(Cl)c4)n3)cn2)CC1 [Example 329, 1-(1-((2-(3,5-dichlorophenyl)-6-((2-(4-methylpiperazin-1-yl)pyrimidin-5-yl)oxy)pyridin-4-yl)methyl)piperidin-4-yl)urea] | 22.2 | 42.3 | 19.2

Reference: patent US20230011571A1, “SMALL MOLECULE FURIN INHIBITORS FOR TREATING INFECTIOUS DISEASES” (BP Asset V, Inc., priority 2019, published 2023)
